Reference: ChEMBL document CHEMBL5244229, “Thiazole-containing compounds as therapeutic targets for cancer therapy” (Eur J Med Chem, 2020)
In brackets after ≈: the same amount, converted by molar mass. Blank lines part the entries; values can stand above or below the molecule they belong to.

Columns and labels:
HepG2 [1] = experiment: Anticancer activity against human HepG2 cells; format: functional, cell-based
HepG2 [2] = experiment: Cytotoxicity against human HepG2 cells; format: functional, cell-based
[3] = biological target: Epidermal growth factor receptor (Homo sapiens, UniProt P00533); experiment: Inhibition of EGFR (unknown origin)
Sequence of Epidermal growth factor receptor (P00533 whole entry): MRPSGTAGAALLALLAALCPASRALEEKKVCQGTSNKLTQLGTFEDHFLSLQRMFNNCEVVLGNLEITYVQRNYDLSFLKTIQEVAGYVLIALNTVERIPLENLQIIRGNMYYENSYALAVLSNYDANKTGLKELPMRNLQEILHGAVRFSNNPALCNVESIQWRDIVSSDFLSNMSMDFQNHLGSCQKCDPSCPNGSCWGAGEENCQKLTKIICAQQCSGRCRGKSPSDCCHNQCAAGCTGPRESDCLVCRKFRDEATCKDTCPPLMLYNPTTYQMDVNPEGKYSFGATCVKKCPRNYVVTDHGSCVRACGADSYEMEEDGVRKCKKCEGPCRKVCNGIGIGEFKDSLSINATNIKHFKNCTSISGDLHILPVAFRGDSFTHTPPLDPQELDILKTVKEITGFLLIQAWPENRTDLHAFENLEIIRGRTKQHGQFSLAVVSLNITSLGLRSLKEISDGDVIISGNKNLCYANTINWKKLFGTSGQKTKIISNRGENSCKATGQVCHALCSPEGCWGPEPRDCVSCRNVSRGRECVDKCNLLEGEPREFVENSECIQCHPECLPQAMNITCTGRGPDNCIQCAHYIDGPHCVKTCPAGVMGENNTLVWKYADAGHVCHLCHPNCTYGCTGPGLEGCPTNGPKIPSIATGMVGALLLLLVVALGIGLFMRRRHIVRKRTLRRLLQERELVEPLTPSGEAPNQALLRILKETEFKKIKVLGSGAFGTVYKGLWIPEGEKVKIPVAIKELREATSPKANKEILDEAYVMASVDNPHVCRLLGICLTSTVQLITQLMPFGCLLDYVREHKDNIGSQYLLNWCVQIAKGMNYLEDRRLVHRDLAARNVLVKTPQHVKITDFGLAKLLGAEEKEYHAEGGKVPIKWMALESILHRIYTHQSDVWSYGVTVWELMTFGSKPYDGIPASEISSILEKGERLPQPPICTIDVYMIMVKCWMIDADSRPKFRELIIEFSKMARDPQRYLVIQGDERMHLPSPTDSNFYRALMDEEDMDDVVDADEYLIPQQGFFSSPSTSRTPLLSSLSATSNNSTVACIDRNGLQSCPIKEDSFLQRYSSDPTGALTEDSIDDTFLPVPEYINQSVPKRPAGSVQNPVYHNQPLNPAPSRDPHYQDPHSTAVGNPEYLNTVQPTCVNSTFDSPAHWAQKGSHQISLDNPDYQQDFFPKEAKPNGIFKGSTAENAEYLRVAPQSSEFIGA

HCT-116 [4] = experiment: Antiproliferative activity against human HCT-116 cells assessed as reduction in cell viability; format: functional, cell-based
A549 = experiment: Antiproliferative activity against human A549 cells; format: functional, cell-based
HEK293 = experiment: Antiproliferative activity against human HEK293 cells; format: functional
MCF7 [5] = experiment: Cytotoxicity against human MCF7 cells; format: functional, cell-based
SNU-638 = experiment: Cytotoxicity against human SNU-638 cells; format: functional, cell-based
MKN-74 = experiment: Cytotoxicity against human MKN-74 cells; format: functional, cell-based
[6] = Cytotoxicity against human SNU-216 cells; format: functional, cell-based
AGS = experiment: Cytotoxicity against human AGS cells; format: functional, cell-based
Hep 3B2 = experiment: Cytotoxicity against human Hep3B cells; format: functional, cell-based
SK-HEP1 = experiment: Cytotoxicity against human SK-HEP1 cells; format: functional, cell-based
HeLa = experiment: Cytotoxicity against human HeLa cells; format: functional, cell-based
K562 = experiment: Anticancer activity against human K562 cells; format: functional, cell-based
MV4-11 = experiment: Anticancer activity against human MV4-11 cells; format: functional, cell-based
HCT-116 [7] = experiment: Anticancer activity against human HCT-116 cells; format: functional, cell-based
MCF7 [8] = experiment: Anticancer activity against human MCF7 cells; format: functional, cell-based
Colon cell line = experiment: Cytotoxicity against human Colon cell line; format: functional, cell-based
HepG2 [9] = experiment: Cytotoxicity against human HepG2 cells assessed as reduction in cell viability measured after 48 hrs by MTS assay; format: functional, cell-based; settings: HepG2, 48 h
MDA-MB-435 = experiment: Cytotoxicity against human MDA-MB-435 cells; format: functional, cell-based
SMMC-7721 = experiment: Cytotoxicity against human SMMC-7721 cells; format: functional, cell-based

- IC50 (HepG2 [1]): 1.61 µg/mL
Structure (SMILES): C/C(=N\NC(=O)c1sc(-c2ccccc2)nc1C)C1=NN(C)C(/N=N/C(=O)c2sc(-c3ccccc3)nc2-c2ccc(C)cc2)C1 (stereo unspecified)

Structure (SMILES): Cc1nc(C(Cl)(Cl)S(=O)(=O)c2ccc(F)cc2)c([N+](=O)[O-])s1
- CC50 (HepG2 [2]): < 2500 nM

- IC50 [3]: 8 nM
Structure (SMILES): COc1cc(C(=O)c2csc(-c3ccc4[nH]ccc4c3)n2)cc(OC)c1OC

Structure (SMILES): CCCCCCCC(=O)SCC/C=C/[C@@H]1CC(=O)NCc2nc(cs2)C2=N[C@@](C)(CS2)C(=O)N[C@@H](C(C)C)C(=O)O1 [LARGAZOLE]
- IC50 (HCT-116 [4]): 390 nM
- GI50 (A549): 1460 nM
- GI50 (HEK293): > 100000 nM

Structure (SMILES): Cc1nc(C(Cl)(Cl)S(=O)(=O)c2ccccc2)c([N+](=O)[O-])s1
- CC50 (HepG2 [2]): < 2500 nM

Structure (SMILES): CC(=O)Nc1ccc(NC(=O)/C(C#N)=C2\SC=C(c3ccccc3)N2c2ccccc2)cc1
- IC50 (MCF7 [5]): 9.3 µg/mL

Structure (SMILES): C/C=C1\NC(=O)[C@H]([C@@H](C)O)NC(=O)c2csc(n2)-c2ccc(-c3nc(-c4nc(C(=O)N/C(=C/C)C(=O)NC[C@H](C)O)cs4)cs3)nc2-c2csc(n2)[C@H]([C@@H](C)O)NC(=O)c2csc(n2)[C@H](C(C)C)NC(=O)c2csc1n2
- IC50 (HepG2 [2]): 910 nM
- IC50 (SNU-638): 410 nM
- IC50 (MKN-74): 7300 nM
- IC50 [6]: 440 nM
- IC50 (AGS): 500 nM
- IC50 (Hep 3B2): 940 nM
- IC50 (SK-HEP1): 830 nM

- IC50 (HCT-116 [4]): 390 nM
- GI50 (A549): 1460 nM
Structure (SMILES): CCCCCCCC(=O)SCC/C=C/[C@@H]1CC(=O)NCc2nc(cs2)C2=N[C@@](C)(CS2)C(=O)N[C@@H](c2ccccc2)C(=O)O1
- GI50 (HEK293): > 100000 nM

- IC50 [3]: 20 nM
Structure (SMILES): COc1cc(C(=NC#N)c2csc(-c3ccccc3)n2)cc(OC)c1OC

Structure (SMILES): CC1=C(C(=O)Nc2nc(-c3ccccc3)cs2)C(c2ccc([N+](=O)[O-])cc2)C(C(=O)Nc2nc(-c3ccccc3)cs2)=C(C)N1
- IC50 (HeLa): 3 nM

- IC50 (K562): 13000 nM
Structure (SMILES): O=S(=O)(O)c1ccc(/N=N/C(=N\c2nc(-c3ccccc3)cs2)c2cc3ccccc3nc2Cl)cc1
- IC50 (MCF7 [5]): 16000 nM

Structure (SMILES): O=S(=O)(Nc1ccc(-c2csc(N/N=C/c3ccc(N(CCCl)CCCl)cc3)n2)cc1)c1ccc(F)cc1
- IC50 (MV4-11): 2170 nM
- IC50 (HCT-116 [7]): 3.02 µg/mL

- IC50 [3]: 5480 nM
Structure (SMILES): FC(F)(F)c1ccc(/C=N/Nc2nc(-c3ccc(Cl)cc3Cl)cs2)cc1

- GI50 (MCF7 [8]): > 80 µg/mL
Structure (SMILES): O=[N+]([O-])c1ccc(-c2nn(-c3nc(-c4ccc(Br)cc4)cs3)cc2/C=N/c2nc[nH]n2)cc1
- GI50 (HeLa): 1.2 µg/mL (≈ 2.3 µM)

Structure (SMILES): O=C1NC(=O)/C(=C/c2ccccc2Cl)S1
- IC (Colon cell line): 10 µg/mL

Structure (SMILES): CC(=O)Nc1ccc(NC(=O)/C(C#N)=C2\SC=C(C)N2c2ccccc2)cc1
- IC50 (MCF7 [5]): 6.9 µg/mL

Structure (SMILES): Cc1nc(C(Cl)(Cl)S(=O)(=O)c2ccc(Cl)cc2)c([N+](=O)[O-])s1
- CC50 (HepG2 [2]): < 2500 nM

- IC50 [3]: 80 nM
Structure (SMILES): O=C(NC1=NC2C(=O)NN=C(c3ccc(Br)cc3)C2S1)Nc1ccc(Cl)cc1 (stereo unspecified)

- IC50 (HepG2 [1]): 1.98 µg/mL
Structure (SMILES): Cc1c(C(=O)Nc2ccccc2)s/c(=N\NC(=O)c2cnc(-c3ccccc3)s2)n1-c1ccccc1

Structure (SMILES): COc1ccc(/C=C(/C#N)c2nc(-c3cc4ccccc4oc3=O)cs2)cc1
- IC50 (HepG2 [9]): 2330 nM

Structure (SMILES): Cc1ccc(S(=O)(=O)C(Cl)(Cl)c2nc(C)sc2[N+](=O)[O-])cc1
- CC50 (HepG2 [2]): < 2500 nM
- CC50 (Colon cell line; Homo sapiens, Colon cell line): 1000 nM

Structure (SMILES): C=C(NC(=O)C(=C)NC(=O)c1ccc2c(n1)-c1coc(n1)C(=O)NC(=O)CNC(=O)c1coc(n1)C(=C)NC(=O)[C@H](C(C)(C)O)NC(=O)C(=O)NC(=O)c1nc(oc1C)/C(=C\C)NC[C@H](C(C)C)NC(=O)c1csc-2n1)C(N)=O
- IC50 (HepG2 [2]): 1300 nM
- IC50 (SNU-638): 750 nM
- IC50 (MKN-74): 2430 nM
- IC50 [6]: 880 nM
- IC50 (AGS): 990 nM
- IC50 (Hep 3B2): 1040 nM
- IC50 (SK-HEP1): 990 nM

Structure (SMILES): COc1ccc(S(=O)(=O)Nc2ccc(-c3csc(N/N=C/c4ccc(N(CCCl)CCCl)cc4)n3)cc2)cc1
- IC50 (MV4-11): 2170 nM
- IC50 (HCT-116 [7]): 3.02 µg/mL

- IC50 (MCF7 [8]): 3530 nM
Structure (SMILES): CC/C(=C(\c1ccccc1)c1ccc(OCCN(C)C)cc1)c1ccccc1 [TAMOXIFEN]

Structure (SMILES): COc1ccc(/C=C(/C#N)c2nc(-c3cc4ccccc4oc3=O)cs2)cc1OC
- IC50 (HepG2 [9]): 2890 nM

Structure (SMILES): CC1=C(C(=O)Nc2nc(-c3ccccc3)cs2)C(c2ccc(Cl)cc2)C(C(=O)Nc2nc(-c3ccccc3)cs2)=C(C)N1
- IC50 (HeLa): 2 nM

Structure (SMILES): Cc1nc(C(Cl)(Cl)S(=O)(=O)c2ccc(Br)cc2)c([N+](=O)[O-])s1
- CC50 (HepG2 [2]): < 2500 nM

- IC50 [3]: 2000 nM
Structure (SMILES): CC(C)=NNc1nc(-c2ccc(Cl)cc2)cs1

Structure (SMILES): Nc1nc(-c2ccc(Oc3ccc(Cl)c(Cl)c3)cc2)cs1
- IC50 (MDA-MB-435): 759 nM

- IC50 (HepG2 [1]): 10800 nM
Structure (SMILES): Cc1ccc(-c2nc(C(=O)Nc3ccc([N+](=O)[O-])cc3)cs2)cc1
- IC50 (Colon cell line; Homo sapiens, Colon cell line): 10800 nM

Structure (SMILES): C=C(NC(=O)C(=C)NC(=O)c1csc(C2=N[C@@H]3c4csc(n4)[C@H]4NC(=O)c5csc(n5)[C@H]([C@](C)(O)[C@@H](C)O)NC(=O)[C@H]5CSC(=N5)/C(=C/C)NC(=O)[C@H]([C@@H](C)O)NC(=O)c5csc(n5)[C@]3(CC2)NC(=O)[C@H](C)NC(=O)C(=C)NC(=O)[C@H](C)NC(=O)[C@H]([C@@H](C)CC)N[C@@H]2C=Cc3c([C@H](C)O)cc(nc3[C@H]2O)C(=O)O[C@@H]4C)n1)C(N)=O [THIOSTREPTON]
- IC50 (HepG2 [2]): 710 nM
- IC50 (SNU-638): 300 nM
- IC50 (MKN-74): 4200 nM
- IC50 [6]: 410 nM
- IC50 (AGS): 400 nM
- IC50 (Hep 3B2): 820 nM
- IC50 (SK-HEP1): 740 nM

Structure (SMILES): C/C=C1\NC(=O)[C@H]([C@@H](C)O)NC(=O)c2csc(n2)-c2ccc(-c3nc(-c4nc(C(=O)N/C(=C/C)C(=O)NC[C@@H](C)O)cs4)cs3)nc2-c2csc(n2)[C@H]([C@@H](C)O)NC(=O)c2csc(n2)[C@H](C(C)(C)O)NC(=O)c2csc1n2
- IC50 (HepG2 [2]): 1340 nM
- IC50 (SNU-638): 990 nM
- IC50 (MKN-74): 11000 nM
- IC50 [6]: 7500 nM
- IC50 (AGS): 1430 nM
- IC50 (Hep 3B2): 2340 nM
- IC50 (SK-HEP1): 2120 nM

Structure (SMILES): N#Cc1ccc(S(=O)(=O)Nc2ccc(-c3csc(N/N=C/c4ccc(N(CCCl)CCCl)cc4)n3)cc2)cc1
- IC50 (MV4-11): 2170 nM
- IC50 (HCT-116 [7]): 3.02 µg/mL

- IC50 [3]: 10100 nM
Structure (SMILES): CCOC(=O)c1csc(NC(=S)Nc2ccc(Cl)cc2)n1

- IC50 (HepG2 [1]): 150 nM
- IC50 (HCT-116 [7]): 1370 nM
- IC50 (K562): 20 nM
Structure (SMILES): Cc1nc(N2N=C(c3cccs3)CC2c2ccc(C3CC(c4cccs4)=NN3c3nc(C)c(/N=N/c4ccc([N+](=O)[O-])cc4)s3)cc2)sc1/N=N/c1ccc([N+](=O)[O-])cc1 (stereo unspecified)
- IC50 (HepG2 [9]): 1370 nM
- IC50 (SMMC-7721): 3000 nM

- IC50 (MCF7 [8]): 8870 nM
Structure (SMILES): C/C(=N/N=c1/[nH]c(C)c(/N=N/c2ccccc2)s1)[C@H]1CC[C@H]2[C@@H]3CCC4=CC(=O)CC[C@]4(C)[C@H]3CC[C@]12C

Structure (SMILES): COc1ccc(-c2csc(NC(=O)CN3CCc4ccccc4C3)n2)cc1
- LC50 (Colon cell line; Homo sapiens, Colon cell line): 28 µg/mL (≈ 73.8 µM)

Structure (SMILES): C=C(NC(=O)C(=C)NC(=O)c1csc(C2=N[C@@H]3c4csc(n4)[C@H]4NC(=O)c5csc(n5)C([C@](C)(O)[C@@H](C)O)NC(=O)[C@H]5CSC(=N5)/C(=C/C)NC(=O)C([C@@H](C)O)NC(=O)c5csc(n5)[C@]3(CC2)NC(=O)[C@H](C)NC(=O)C(=C)NC(=O)C(=C)NC(=O)[C@H](C(C)C)N[C@H]2C=Cc3c([C@H](C)O)cc(nc3[C@H]2O)C(=O)O[C@@H]4C)n1)C(N)=O (stereo partly specified)
- IC50 (HepG2 [2]): 1300 nM
- IC50 (SNU-638): 910 nM
- IC50 (MKN-74): 6210 nM
- IC50 [6]: 750 nM
- IC50 (AGS): 710 nM
- IC50 (Hep 3B2): 1900 nM
- IC50 (SK-HEP1): 1600 nM

- IC50 (HepG2 [1]): 11600 nM
Structure (SMILES): Cc1ccc(-c2nc(C(=O)Nc3cccc(Cl)c3)cs2)cc1

- IC50 (MCF7 [8]): 5280 nM
Structure (SMILES): C/C(=N/N=c1/[nH]c(-c2ccccc2)c(/N=N/c2ccccc2)s1)[C@H]1CC[C@H]2[C@@H]3CCC4=CC(=O)CC[C@]4(C)[C@H]3CC[C@]12C

Structure (SMILES): COc1cccc2c1C(=O)c1c(O)c3c(c(O)c1C2=O)C[C@@](O)(C(=O)CO)C[C@@H]3O[C@H]1C[C@H](N)[C@H](O)[C@H](C)O1.Cl [DOXORUBICIN HYDROCHLORIDE]
- GI50 (HeLa): < 80 µg/mL
